Reference: patent publication US12655125B2 (SIRONAX LTD., priority 2020, dated 2026)

System: HT-29 cells
Assay: HT29 Cells 0FBS Assay In Vitro (TNF-α/SMAC mimetic/zVAD-FMK induced necroptosis, CellTiter-Glo cell viability)
Format: cell-based
Conditions: Homo sapiens; HT-29 cells, FBS free medium, TNF-α (10 ng/ml), SMAC mimetic (6 uM), zVAD-FMK (10 μM), 20 hours; geometric mean EC50; read-out: Cell activity (EC50) of Compounds 1-116
From the text: Protocol for HT29 Cells 0FBS Assay In Vitro
• Cell line: HT-29 (ATCC® HTB-38™) • Culture medium: McCOY's 5 A, Gibco, Cat No. 16600-082 • FBS, Gibco, Cat No. 10099-141C • Trypsin: Gibco, Cat No. 25200-056 • DMSO: Sigma, Cat No. 67-68-5, 1 L • Assay plate: Corning #3903 • Compound dilution plate: Corning #3357 • Inducers: TNFα, GenScript, Cat No. ZO1001-50, • SmacM, Cat. No., HY-15989, MedChemExpress (MCE) • Z_VAD FMK, TargetMol, T6013 • Cell Titer-Glo® Luminescent Cell Viability Assay Kit: Promega, Cat No. G7573 • EnVision: PerkinElmer, 2105-0010 2. Cell Seeding of HT-29 Cells • 1) HT-29 cells were checked every day to make sure they are healthy and growing as expected. They were split sub-culturing when were approximately 80% confluent. • 2) First pre-warm the culture medium of McCOY's 5 A medium (Gibco, Cat No. 16600-082) with 10% FBS (Gibco, Cat No. 10099-141C) in 37° C. water bath for at least 30 min. • 3) Growing cells to desired level of confluency 80% in a T75 flask, aspirate the medium, and wash with warm PBS two times. • 4) Add 2-3 ml fresh warm trypsin (Gibco, Cat No. 25200-056) solution. Transfer the flask to a 37° C. incubator. • 5) After 5 minutes, tap the side of the flask, and examine the flask under a microscope for lifting. If necessary, return the cells to the incubator for an additional 5-10 minutes, with occasional tapping, until lifting is complete. • 6) Quickly neutralize the trypsin reaction by adding 6-9 ml cell culture medium, then transfer the cells to sterile 15 ml conical tubes. Pellet the cells by centrifugation at 300×g for 7 minutes, then decant the supernatant. • 7) Resuspend the cells in fresh cell culture medium. Do cell counting with hemocytometer. • 8) Seed 100 μl of 5,000 cells into each well of the sterile 96-well cell culture plate (Corning 3903) and culture overnight at 37° C. with 5% C02. 3. Compounds Titration and Treatment of HT-29 Cells • 1) All batches of compounds (CPDs) (e.g., compound 1-281) were dissolved in DMSO (Dimethyl sulfoxide) as 20 mM stock solution. • 2) Take 3 ul 20 mM stock solution of CPDs to 27 ul DMSO and mix well, continue the titration ratio of 1:3 (20 ul CPDs+40 ul DMSO), e.g., to give solutions of CPDS at 6.6 mM, 2.2 mM, etc., till the 10 points end. • 3) Take out assay plates with HT-29 cells from incubator, remove all culture medium then wash 1 time with 1×PBS, and change fresh McCOY's 5 A medium of FBS free with a cocktail of TNF-α (10 ng/ml), the SMAC mimetic (6 uM) and zVAD-FMK (10 μM) to stimulate the HT-29 cells to increase pRIPK1 levels and necroptosis. • 4) Add 0.5 μL of the diluted compound to the corresponding 96-well assay plates. • 5) Incubate the assay plates for 20 hours at 37° C. with 5% C02. 4. Performing Cell Viability Detection of HT-29 Cells after Treated with Compounds • 1) The CellTiter-Glo® Luminescent Cell Viability Assay was employed to detect the ATP levels of viable HT-29 cells. • 2) Equilibrate the CellTiter-Glo® buffer and the lyophilized substrate to room temperature prior to use. • 3) Resuspend the CellTiter-Glo® substrate with CellTiter-Glo® buffer, mix by gently vortexing to obtain a homogeneous solution. • 4) Pipette 20 μl the enzyme/substrate mixture by multi-channel pipette into the 96-well assay plates from step 5) under the Compounds titration and treatment stage. • 5) Place the plates on an orbital shaker and mix the contents for 3 minutes to induce cell lysis. • 6) Then allow the plates to incubate at room temperature for 10 minutes to stabilize luminescent signal. • 7) Read and record luminescence signal with EnVision. • 8) The geometric mean EC50 of the compounds were calculated from points response dose with duplicate. In Tables 2 and 4, activity is provided as follows: +++=0.1 nM≤EC50<100 nM; ++=100 nM≤EC50<1000 nM; +=1000 nM≤EC50<10000 nM.

Row | SMILES | EC50 [µM]
1 | Cc1cn(C)c(-c2cc(OC3CN(C(=O)N4N=CC[C@H]4c4cc(F)cc(F)c4)C3)c(F)cn2)n1 [compound 40, (S)-(5-(3,5-difluorophenyl)-4,5-dihydro-1H-pyrazol-1-yl)(3-((2-(1,4-dimethyl-1H-imidazol-2-yl)-5-fluoropyridin-4-yl)oxy)azetidin-1-yl)methanone] | 0.0001 to 0.1
2 | Cn1nc(N)cc1-c1cc(OC2CN(C(=O)N3N=CC[C@H]3c3cc(F)cc(F)c3)C2)c(F)cn1 [compound 41, (S)-(3-((2-(3-amino-1-methyl-1H-pyrazol-5-yl)-5-fluoropyridin-4-yl)oxy)azetidin-1-yl)(5-(3,5-difluorophenyl)-4,5-dihydro-1H-pyrazol-1-yl)methanone] | 0.0001 to 0.1
3 | Cc1cnn(C)c1-c1ncc(F)c(OC2CN(C(=O)N3N=CC[C@H]3c3cc(F)cc(F)c3)C2)n1 [compound 42, (S)-(5-(3,5-difluorophenyl)-4,5-dihydro-1H-pyrazol-1-yl)(3-((2-(1,4-dimethyl-1H-pyrazol-5-yl)-5-fluoropyrimidin-4-yl)oxy)azetidin-1-yl)methanone] | 0.0001 to 0.1
4 | Cc1cnn(C)c1-c1cc(OC2CN(C(=O)N3N=CC[C@H]3c3cc(F)cc(F)c3)C2)c(F)cn1 [compound 43, (S)-(5-(3,5-difluorophenyl)-4,5-dihydro-1H-pyrazol-1-yl)(3-((2-(1,4-dimethyl-1H-pyrazol-5-yl)-5-fluoropyridin-4-yl)oxy)azetidin-1-yl)methanone] | 0.0001 to 0.1
5 | Cc1ncn(C)c1-c1ccc(F)c(OC2CN(C(=O)N3N=CC[C@H]3c3cc(F)cc(F)c3)C2)n1 [compound 44, (S)-(5-(3,5-difluorophenyl)-4,5-dihydro-1H-pyrazol-1-yl)(3-((6-(1,4-dimethyl-1H-imidazol-5-yl)-3-fluoropyridin-2-yl)oxy)azetidin-1-yl)methanone] | 0.0001 to 0.1
6 | Cc1ncn(C)c1-c1cc(OC2CN(C(=O)N3N=CC[C@H]3c3cc(F)cc(F)c3)C2)c(F)cn1 [compound 45, (S)-(5-(3,5-difluorophenyl)-4,5-dihydro-1H-pyrazol-1-yl)(3-((2-(1,4-dimethyl-1H-imidazol-5-yl)-5-fluoropyridin-4-yl)oxy)azetidin-1-yl)methanone] | 0.0001 to 0.1
7 | Cc1nnn(C)c1-c1ncc(F)c(OC2CN(C(=O)N3N=CC[C@H]3c3cc(F)cc(F)c3)C2)n1 [compound 46, (S)-(5-(3,5-difluorophenyl)-4,5-dihydro-1H-pyrazol-1-yl)(3-((2-(1,4-dimethyl-1H-1,2,3-triazol-5-yl)-5-fluoropyrimidin-4-yl)oxy)azetidin-1-yl)methanone] | 0.0001 to 0.1
8 | Cc1nnn(C)c1-c1cc(OC2CN(C(=O)N3N=CC[C@H]3c3cc(F)cc(F)c3)C2)c(F)cn1 [compound 47, (S)-(5-(3,5-difluorophenyl)-4,5-dihydro-1H-pyrazol-1-yl)(3-((2-(1,4-dimethyl-1H-1,2,3-triazol-5-yl)-5-fluoropyridin-4-yl)oxy)azetidin-1-yl)methanone] | 0.0001 to 0.1
9 | Cn1ncc(C#N)c1-c1ncc(F)c(OC2CN(C(=O)N3N=CC[C@H]3c3cc(F)cc(F)c3)C2)n1 [compound 48, (S)-5-(4-((1-(5-(3,5-difluorophenyl)-4,5-dihydro-1H-pyrazole-1-carbonyl)azetidin-3-yl)oxy)-5-fluoropyrimidin-2-yl)-1-methyl-1H-pyrazole-4-carbonitrile] | 0.0001 to 0.1
10 | Cn1ncc(C#N)c1-c1cc(OC2CN(C(=O)N3N=CC[C@H]3c3cc(F)cc(F)c3)C2)c(F)cn1 [compound 49, (S)-5-(4-((1-(5-(3,5-difluorophenyl)-4,5-dihydro-1H-pyrazole-1-carbonyl)azetidin-3-yl)oxy)-5-fluoropyridin-2-yl)-1-methyl-1H-pyrazole-4-carbonitrile] | 0.0001 to 0.1
11 | COc1cnn(C)c1-c1cc(OC2CN(C(=O)N3N=CC[C@H]3c3cc(F)cc(F)c3)C2)c(F)cn1 [compound 50, (S)-(5-(3,5-difluorophenyl)-4,5-dihydro-1H-pyrazol-1-yl)(3-((5-fluoro-2-(4-methoxy-1-methyl-1H-pyrazol-5-yl)pyridin-4-yl)oxy)azetidin-1-yl)methanone] | 0.0001 to 0.1
12 | CN(C)CCOc1cnn(C)c1-c1cc(OC2CN(C(=O)N3N=CC[C@H]3c3cc(F)cc(F)c3)C2)c(F)cn1 [compound 51, (S)-(5-(3,5-difluorophenyl)-4,5-dihydro-1H-pyrazol-1-yl)(3-((2-(4-(2-(dimethylamino)ethoxy)-1-methyl-1H-pyrazol-5-yl)-5-fluoropyridin-4-yl)oxy)azetidin-1-yl)methanone] | 0.1 to 1
13 | COCCOc1cnn(C)c1-c1cc(OC2CN(C(=O)N3N=CC[C@H]3c3cc(F)cc(F)c3)C2)c(F)cn1 [compound 52, (S)-(5-(3,5-difluorophenyl)-4,5-dihydro-1H-pyrazol-1-yl)(3-((5-fluoro-2-(4-(2-methoxyethoxy)-1-methyl-1H-pyrazol-5-yl)pyridin-4-yl)oxy)azetidin-1-yl)methanone] | 0.0001 to 0.1
14 | Cn1ncc(N)c1-c1cc(OC2CN(C(=O)N3N=CC[C@H]3c3cc(F)cc(F)c3)C2)c(F)cn1 [compound 53, (S)-(3-((2-(4-amino-1-methyl-1H-pyrazol-5-yl)-5-fluoropyridin-4-yl)oxy)azetidin-1-yl)(5-(3,5-difluorophenyl)-4,5-dihydro-1H-pyrazol-1-yl)methanone] | 0.0001 to 0.1
15 | CNc1cnn(C)c1-c1cc(OC2CN(C(=O)N3N=CC[C@H]3c3cc(F)cc(F)c3)C2)c(F)cn1 [compound 54, (S)-(5-(3,5-difluorophenyl)-4,5-dihydro-1H-pyrazol-1-yl)(3-((5-fluoro-2-(1-methyl-4-(methylamino)-1H-pyrazol-5-yl)pyridin-4-yl)oxy)azetidin-1-yl)methanone] | 0.0001 to 0.1
16 | CN(C)c1cnn(C)c1-c1cc(OC2CN(C(=O)N3N=CC[C@H]3c3cc(F)cc(F)c3)C2)c(F)cn1 [compound 55, (S)-(5-(3,5-difluorophenyl)-4,5-dihydro-1H-pyrazol-1-yl)(3-((2-(4-(dimethylamino)-1-methyl-1H-pyrazol-5-yl)-5-fluoropyridin-4-yl)oxy)azetidin-1-yl)methanone] | 0.0001 to 0.1
17 | COCCNc1cnn(C)c1-c1cc(OC2CN(C(=O)N3N=CC[C@H]3c3cc(F)cc(F)c3)C2)c(F)cn1 [compound 56, (S)-(5-(3,5-difluorophenyl)-4,5-dihydro-1H-pyrazol-1-yl)(3-((5-fluoro-2-(4-((2-methoxyethyl)amino)-1-methyl-1H-pyrazol-5-yl)pyridin-4-yl)oxy)azetidin-1-yl)methanone] | 0.0001 to 0.1
18 | CC(=O)Nc1cnn(C)c1-c1cc(OC2CN(C(=O)N3N=CC[C@H]3c3cc(F)cc(F)c3)C2)c(F)cn1 [compound 57, (S)—N-(5-(4-((1-(5-(3,5-difluorophenyl)-4,5-dihydro-1H-pyrazole-1-carbonyl)azetidin-3-yl)oxy)-5-fluoropyridin-2-yl)-1-methyl-1H-pyrazol-4-yl)acetamide] | 0.0001 to 0.1
19 | CCC(=O)Nc1cnn(C)c1-c1cc(OC2CN(C(=O)N3N=CC[C@H]3c3cc(F)cc(F)c3)C2)c(F)cn1 [compound 58, (S)—N-(5-(4-((1-(5-(3,5-difluorophenyl)-4,5-dihydro-1H-pyrazole-1-carbonyl)azetidin-3-yl)oxy)-5-fluoropyridin-2-yl)-1-methyl-1H-pyrazol-4-yl)propionamide] | 0.0001 to 0.1
